Test results published in US20170065564A1, “BIS-CYCLIC GUANIDINE COMPOUND COMPOSITIONS, METHODS OF USE AND TREATMENT THEREOF” (University of South Florida, priority 2014, published 2017).

Legend:
A. baumannii = assay: Resistance serial passage assay; format: cell-based, Acinetobacter baumannii; conditions: 8 passages, concentration doubled each day
Method: (§1) ESKAPE pathogens were grown overnight in liquid media at 37° C. These cultures were then diluted 1:100 in fresh media, and seeded into a 96-well plate. Lead bis-cyclic guanidines or control agents were added to respective wells at half MIC concentrations. Plates were then incubated for 24 hours at 37° C., with bacteria removed from these cultures on the following day, to inoculate fresh media (1:100 dilution) containing compounds at a 2-fold higher concentrations. These were then grown overnight, and the procedure repeated for a total of eight days. […] Each experiment was performed in triplicate, yielding identical results.

Klebsiella pneumoniae = assay: MIC micro broth dilution assay; format: cell-based; conditions: for stacked score activity, 100/MIC, K: K. pneumoniae; for MIC: Klebsiella pneumoniae; for concentration inhibiting 90% of isolates: panel of K. pneumoniae clinical isolates
Summary of the method: (§2)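 Multidrug-resistant clinical ESKAPE isolates were grown overnight (Gram-positives in TSB, Gram-negatives in LB), diluted 1:1,000 and exposed to decreasing compound concentrations in DMF (≤2.0% DMF).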

Pseudomonas aeruginosa = assay: MIC micro broth dilution assay; format: cell-based; conditions: for MIC: Pseudomonas aeruginosa; for concentration inhibiting 90% of isolates: panel of P. aeruginosa clinical isolates
Method: For this study we used a representative panel of multi-drug resistant clinical ESKAPE pathogen isolates (Supplemental Table S6).^42 43 3a, 44 45 Gram-positive organisms were grown in tryptic soy broth media (TSB), whilst Gram-negative organisms were grown in lysogeny Broth (LB), as described by us previously. ^43 MIC and MBC determination assays.
Broth cultures of ESKAPE strains were grown overnight before being diluted 1 in 1,000 in fresh media. Sterile 96-well plates were loaded with culture and compounds (in DMF) were added at decreasing concentrations to equal a total volume of 200 μl per well. Care was taken to not add more than 2.0% DMF to any well. Plates were then incubated at 37° C., and MICs determined after 24 hours by visual inspection for a lack of turbidity in wells. All assays were performed in triplicate with identical results obtained. For both the scaffold ranking and positional scanning samples, relative broad-spectrum activity was determined via stacked scores: […]

Staphylococcus aureus = assay: MIC micro broth dilution assay; format: cell-based; conditions: for stacked score activity, 100/MIC, S: S. aureus; for MIC: Staphylococcus aureus
Summary of the method: as §2

human A549 cells = assay: Cytotoxicity assay (MTT); format: cell-based; conditions: for IC50: Homo sapiens, A549, MTT, 48 hours
Method: Cytotoxicity assays were performed using human A549 cells (adenocarcinomic human alveolar epithelial cells), as described by us previously.^44 Briefly, cells were cultured in F-12K Nutrient mixture (Kaighn's Modification) media containing L-glutamine, supplemented with 10% fetal bovine serum and 1% penicillin-streptomycin for 3 days at 37° and 5% CO2. Cells were then diluted to 1.0×10^5 ml^−1 using F-12K supplemented media, and added to 96 well tissue culture plates at a volume of 100 μl. Plates were incubated for 24 hours at 37° C. and 5% CO2, allowing the cells to adhere to the plastic. […] Plates were then incubated for 48 hours at 37° C. and 5% CO2. After 48 hours the media was removed, and new media added containing MTT (3-(4, 5-dimethylthiazol-2-yl)-2, 5-diphenyltetrazolium bromide), followed by incubation for four hours at 37° C. and 5% CO2. After 4 h, 50 μl of media was removed, replaced with DMSO and incubated for ten minutes at 37° C. in order to solubilize any formazan produced. A Biotek plate reader was used to measure the absorbance of formazan production at […], and IC50 values were determined for each of the five compounds. Front runners were solvated in 45% w/v (2-hydroxypropyl)-β-cyclodextrin in water for these studies; which was also used alone as a negative control. IC50 values were determined for each compound by comparison to vehicle only controls, to assess toxicity to human cells.

E. cloacae = format: cell-based, Enterobacter cloacae; conditions: 8 passages, concentration doubled each day
Method: ESKAPE pathogens were grown overnight in liquid media at 37° C. These cultures were then diluted 1:100 in fresh media, and seeded into a 96-well plate. Lead bis-cyclic guanidines or control agents were added to respective wells at half MIC concentrations. […] These were then grown overnight, and the procedure repeated for a total of eight days.

K. pneumoniae = assay: Resistance serial passage assay; format: cell-based, Klebsiella pneumoniae; conditions: 8 passages, concentration doubled each day
Method: as §1

ESKAPE pathogens = assay: MIC micro broth dilution assay, statements and stacked scores over all ESKAPE pathogens; format: cell-based; conditions: letters E,S,K,A,P,E = ESKAPE pathogens, — = none
Summary of the method: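 Overnight cultures of multidrug-resistant clinical isolates, diluted 1 in 1,000 (Gram-positives in TSB, Gram-negatives in LB), were exposed to decreasing compound concentrations in DMF (≤2.0%) at 37° C. MIC was read visually as no turbidity after 24 hours, in triplicate. Broad-spectrum activity was ranked by stacked scores.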

CCCCCCCN1C(=N)N(CCCC[C@H]2CNC(=N)N2CCCCC2CCCCC2)C[C@@H]1CC1CCCCC1 [Compound 16]
> 225 µM: IC50 (human A549 cells)
20: stacked score activity, 100/MIC, K (Klebsiella pneumoniae) | stacked score activity, 100/MIC, S (Staphylococcus aureus)
5 µM: MIC (Klebsiella pneumoniae; K. pneumoniae isolate 1434) | concentration inhibiting 90% of isolates (Klebsiella pneumoniae) | concentration inhibiting 90% of isolates (Pseudomonas aeruginosa)
EAP: pathogens against which the compound showed activity at 4 ug/ml (ESKAPE pathogens)
8 fold: increase in MIC after serial passage (A. baumannii) | increase in MIC after serial passage (E. cloacae) | increase in MIC after serial passage (K. pneumoniae)
7 µM: MIC (Pseudomonas aeruginosa; P. aeruginosa isolate 1418)
2 µM: MIC (Klebsiella pneumoniae; K. pneumoniae isolate 1408) | MIC (Klebsiella pneumoniae; K. pneumoniae isolate 1411) | MIC (Klebsiella pneumoniae; K. pneumoniae isolate 1433) | MIC (Klebsiella pneumoniae; K. pneumoniae isolate 1441) | MIC (Pseudomonas aeruginosa; P. aeruginosa isolate 1416) | MIC (Pseudomonas aeruginosa; P. aeruginosa isolate 1423) | MIC (Staphylococcus aureus; S. aureus isolate 542) | MIC (Staphylococcus aureus; S. aureus isolate 626) | MIC (Staphylococcus aureus; S. aureus isolate 635) | MIC (Staphylococcus aureus; S. aureus isolate 648) | MIC (Staphylococcus aureus; S. aureus isolate 690) | MIC (Staphylococcus aureus; S. aureus isolate 693) | MIC (Staphylococcus aureus; S. aureus isolate 715) | MIC (Staphylococcus aureus; S. aureus isolate 728) | MIC (Staphylococcus aureus; S. aureus isolate 834) | MIC (Staphylococcus aureus; S. aureus isolate 1043) | MIC (Staphylococcus aureus; S. aureus isolate 1049)
1.62 µM: MIC (Klebsiella pneumoniae; purified compound, Table 1) | MIC (Pseudomonas aeruginosa; purified compound, Table 1) | MIC (Staphylococcus aureus; purified compound, Table 1)
3 µM: MIC (Klebsiella pneumoniae; K. pneumoniae isolate 1409) | MIC (Klebsiella pneumoniae; K. pneumoniae isolate 1410) | MIC (Klebsiella pneumoniae; K. pneumoniae isolate 1412) | MIC (Klebsiella pneumoniae; K. pneumoniae isolate 1413) | MIC (Klebsiella pneumoniae; K. pneumoniae isolate 1440) | MIC (Pseudomonas aeruginosa; P. aeruginosa isolate 1414) | MIC (Pseudomonas aeruginosa; P. aeruginosa isolate 1415) | MIC (Pseudomonas aeruginosa; P. aeruginosa isolate 1417) | MIC (Pseudomonas aeruginosa; P. aeruginosa isolate 1419) | MIC (Pseudomonas aeruginosa; P. aeruginosa isolate 1420) | MIC (Pseudomonas aeruginosa; P. aeruginosa isolate 1421) | MIC (Pseudomonas aeruginosa; P. aeruginosa isolate 1422)
ESKAPE: pathogens against which the compound showed activity at 5 ug/ml (ESKAPE pathogens) | pathogens against which the compound showed activity at 10 ug/ml (ESKAPE pathogens) | pathogens against which the compound showed activity at 25 ug/ml (ESKAPE pathogens)

CCCCCCCN1C(=N)N(CCCC[C@H]2CNC(=N)N2CCc2cccc(C(F)(F)F)c2)C[C@@H]1CC1CCCCC1 [Compound 7]
7 µM: MIC (Pseudomonas aeruginosa; P. aeruginosa isolate 1418)
8 fold: increase in MIC after serial passage (A. baumannii) | increase in MIC after serial passage (E. cloacae) | increase in MIC after serial passage (K. pneumoniae)
1.52 µM: MIC (Klebsiella pneumoniae; purified compound, Table 1) | MIC (Pseudomonas aeruginosa; purified compound, Table 1) | MIC (Staphylococcus aureus; purified compound, Table 1)
5 µM: MIC (Klebsiella pneumoniae; K. pneumoniae isolate 1434) | concentration inhibiting 90% of isolates (Klebsiella pneumoniae) | MIC (Pseudomonas aeruginosa; P. aeruginosa isolate 1420) | MIC (Pseudomonas aeruginosa; P. aeruginosa isolate 1422)
ESAP: pathogens against which the compound showed activity at 4 ug/ml (ESKAPE pathogens)
3 µM: MIC (Klebsiella pneumoniae; K. pneumoniae isolate 1409) | MIC (Klebsiella pneumoniae; K. pneumoniae isolate 1440) | MIC (Pseudomonas aeruginosa; P. aeruginosa isolate 1414) | MIC (Pseudomonas aeruginosa; P. aeruginosa isolate 1415) | MIC (Pseudomonas aeruginosa; P. aeruginosa isolate 1417) | MIC (Pseudomonas aeruginosa; P. aeruginosa isolate 1419)
2 µM: MIC (Klebsiella pneumoniae; K. pneumoniae isolate 1408) | MIC (Klebsiella pneumoniae; K. pneumoniae isolate 1410) | MIC (Klebsiella pneumoniae; K. pneumoniae isolate 1411) | MIC (Klebsiella pneumoniae; K. pneumoniae isolate 1412) | MIC (Klebsiella pneumoniae; K. pneumoniae isolate 1413) | MIC (Klebsiella pneumoniae; K. pneumoniae isolate 1433) | MIC (Klebsiella pneumoniae; K. pneumoniae isolate 1441) | MIC (Pseudomonas aeruginosa; P. aeruginosa isolate 1416) | MIC (Pseudomonas aeruginosa; P. aeruginosa isolate 1421) | MIC (Pseudomonas aeruginosa; P. aeruginosa isolate 1423) | MIC (Staphylococcus aureus; S. aureus isolate 542) | MIC (Staphylococcus aureus; S. aureus isolate 626) | MIC (Staphylococcus aureus; S. aureus isolate 635) | MIC (Staphylococcus aureus; S. aureus isolate 648) | MIC (Staphylococcus aureus; S. aureus isolate 690) | MIC (Staphylococcus aureus; S. aureus isolate 693) | MIC (Staphylococcus aureus; S. aureus isolate 715) | MIC (Staphylococcus aureus; S. aureus isolate 728) | MIC (Staphylococcus aureus; S. aureus isolate 834) | MIC (Staphylococcus aureus; S. aureus isolate 1043) | MIC (Staphylococcus aureus; S. aureus isolate 1049)
33: stacked score activity, 100/MIC, S (Staphylococcus aureus)
20: stacked score activity, 100/MIC, K (Klebsiella pneumoniae)
ESKAPE: pathogens against which the compound showed activity at 5 ug/ml (ESKAPE pathogens) | pathogens against which the compound showed activity at 10 ug/ml (ESKAPE pathogens) | pathogens against which the compound showed activity at 25 ug/ml (ESKAPE pathogens)
≥ 33%: A549 cell recovery compared to vehicle only controls (human A549 cells; above 45 μM, at concentrations up to 225 μM)
10 µM: concentration inhibiting 90% of isolates (Pseudomonas aeruginosa)
65.7 µM: IC50 (human A549 cells)
